{
  "source": "patent US10161932B2",
  "about": "“Azetidine-substituted fluorescent compounds” (HOWARD HUGHES MEDICAL INSTITUTE, priority 2014, dated 2018)",
  "key": {"SnapTag-H2B": {"system": "SnapTag-H2B", "test": "Nuclear labeling of live HeLa cells expressing SnapTag-H2B", "format": "cell-based", "from_the_text": "In this Example, an azetidinyl-coumarin label was used for cellular imaging. The performance of a commercial SnapTag ligand (i.e., Snap Cell 430) was compared to a novel azetidinyl derivative (Example 52), which was synthesized from a 7-azetidinyl-coumarin-3-carboxylic acid. Under identical transient transfection, labeling, and imaging conditions, H2B-SnapTag-expressing cells were stained with the red fluorescent nuclear stain DRAQ5 and either Snap Cell 430 or the azetidinyl ligand. Using the DRAQ5 staining as a spatial reference (FIGS. 26 and 27) the intensity of individual nuclei labeled by either SnapTag ligand was measured.\n(§1) HeLa cells (ATCC) and U2OS cells (ATCC) were cultured in Dulbecco's modified eagle medium (DMEM; Life Technologies) supplemented with 10% v/v fetal bovine serum (FBS; Life Technologies), 1 mM GlutaMax (Life Technologies), and 1 mM sodium pyruvate (Sigma) and maintained at 37° C. in a humidified 5% v/v CO2 environment. These cell lines undergo regular mycoplasma testing by the Janelia Cell Culture Facility. […]\nThree separate systems were used to acquire microscopic images. […] Other live-cell single super-resolution imaging experiments were recorded on a custom-built three-camera RAMM frame (ASI) microscope using an 1.4 NA PLAPON 60×OSC objective (Olympus), and a 300 mm focal length tube lens (LAO-300.0, Melles Griot), resulting in 100× overall magnification. […]"}, "[1]": {"system": "HaloTag-histone 2B (H2B) fusion", "test": "Live-cell confocal labeling of HaloTag-H2B", "format": "cell-based", "details": "live cells expressing HaloTag-H2B", "description": "(§2) The labeling kinetics of TMR and JF549 HaloTag ligands were compared with a novel Cy3 HaloTag ligand while measuring the brightness and photon yield of the resulting conjugates.\nas §1, with “Facility. Cells were transfected with HaloTag-H2B, HaloTag-tubulin, SnapTag-TetR, or SnapTag-H2B using an Amaxa Nucleofector (Lonza).” for “Facility.”\n(§3) Three separate systems were used to acquire microscopic images. […] Other live-cell single super-resolution imaging experiments were recorded on a custom-built three-camera RAMM frame (ASI) microscope using an 1.4 NA PLAPON 60×OSC objective (Olympus), and a 300 mm focal length tube lens (LAO-300.0, Melles Griot), resulting in 100× overall magnification. […] Fluorescence was detected with a back-illuminated EMCCD camera (Andor Technology, Ixon Ultra DU-897U-CSO-EXF, 17 MHz EM amplifier), which was controlled through Micro-Manager (1.4.17)."}, "HaloTag": {"system": "HaloTag", "test": "Labeling kinetics and brightness of HaloTag ligand conjugates in vitro", "format": "biochemical", "details": "compared with TMR and Cy3 HaloTag ligands", "from_the_text": "as §2"}, "HaloTag-H2B": {"system": "HaloTag-H2B", "test": "No wash wide-field imaging of live HeLa cells expressing HaloTag-H2B", "format": "cell-based", "details": "ligand 100 nM", "description": "Next, “no wash” imaging experiments were performed using cells expressing the HaloTag-H2B fusion.\nas §1, with “Facility. Cells were transfected with HaloTag-H2B, HaloTag-tubulin, SnapTag-TetR, or SnapTag-H2B using an Amaxa Nucleofector (Lonza). Before the imaging experiments, transfected cells were transferred onto a No. 1 coverslip (Warner Instruments) that was cleaned by Piranha solution (3:1 v/v mixture of concentrated H2SO4 and 30% v/v hydrogen peroxide).” for “Facility.”\nas §3"}, "HaloTag protein": {"system": "HaloTag protein", "details": "ligand 5 μM, 10 mM HEPES pH 7.3 with 0.1 mg·mL^−1 CHAPS"}, "[2]": {"test": "Fluorescence lifetime measurement"}, "[3]": {"test": "Absorption and fluorescence spectroscopy of dyes", "format": "physicochemical", "details": "Table 2; 10 mM HEPES pH 7.3", "description": "Phosphate buffered saline (PBS) was at pH 7.4 unless otherwise noted.\nSpectroscopy was performed using 1-cm path length, 3.5-mL quartz cuvettes from Starna Cells or 1-cm path length, 1.0-mL quartz microcuvettes from Hellma. All measurements were taken at ambient temperature (22±2° C.) in 10 mM HEPES, pH 7.3 buffer unless otherwise noted. Absorption spectra were recorded on a Cary Model 100 spectrometer (Varian); reported values for extinction coefficients (ε) are averages (n=3). Fluorescence spectra were recorded on a Cary Eclipse fluorometer (Varian). Normalized spectra are shown for clarity."}, "[4]": {"test": "Quantum yield measurement (Quantaurus-QY spectrometer)", "format": "physicochemical"}},
  "data": [
    {"molecule": "Nc1nc(OCc2ccc(CNC(=O)c3cc4ccc(N5CCC5)cc4oc3=O)cc2)c2nc[nH]c2n1", "note": "[Example 52, N-(4-(((2-Amino-9H-purin-6-yl)oxy)methyl)benzyl)-7-(azetidin-1-yl)-2-oxo-2H-chromene-3-carboxamide]", "values": [
      {"measurement": "nuclear fluorescence intensity", "setting": "SnapTag-H2B; DRAQ5 reference", "value": "brighter nuclear labeling"},
      {"measurement": "median nuclear intensity relative to cells labeled with the commercial compound", "setting": "SnapTag-H2B; n=50", "value": "five-fold higher"}
    ]},
    {"molecule": "O=C(NCCOCCOCCCCCCCl)c1ccc(C(=O)[O-])c(-c2c3ccc(=[N+]4CCC4)cc-3oc3cc(N4CCC4)ccc23)c1", "note": "[Example 21, 4-((2-(2-((6-Chlorohexyl)oxy)ethoxy)ethyl)carbamoyl)-2-(3,6-di(azetidin-1-yl)xanthylium-9-yl)benzoate]", "values": [
      {"measurement": "live-cell labeling / cell permeability", "setting": "[1]", "value": "efficiently crossed the membrane of live cells and selectively labeled the HaloTag protein"},
      {"measurement": "labeling kinetics", "setting": "HaloTag", "value": "comparable labeling kinetics to the TMR ligand"}
    ]},
    {"molecule": "C[Si]1(C)C2=CC(=[N+]3CCC3)C=CC2=C(c2cc(C(=O)NCCOCCOCCCCCCCl)ccc2C(=O)[O-])c2ccc(N3CCC3)cc21", "note": "[Example 35, 4-((2-(2-((6-Chlorohexyl)oxy)ethoxy)ethyl)carbamoyl)-2-(3,7-di(azetidin-1-yl)-5,5-dimethyldibenzo[b,e]silin-10-ylium-10(5H)-yl)benzoate]", "values": [
      {"measurement": "nonspecific staining / background", "setting": "HaloTag-H2B", "value": "lower nonspecific staining"},
      {"measurement": "increase in absorbance upon reaction with excess HaloTag protein", "setting": "HaloTag protein", "value": 21, "unit": "fold"}
    ]},
    {"molecule": "O=C1OC2(c3ccc(N4CCCCC4)cc3Oc3cc(N4CCCCC4)ccc32)c2ccccc21", "note": "[piperidine derivative, reference compound]", "values": [
      {"measurement": "τ (fluorescence lifetime)", "setting": "[2]", "value": 0.6, "unit": "ns"},
      {"measurement": "τ", "setting": "[2]; Table 2, 10 mM HEPES pH 7.3 per table footnote", "value": 0.59, "unit": "ns"},
      {"measurement": "ε", "setting": "[3]", "value": "80,000 M^−1 cm^−1"},
      {"measurement": "λem", "setting": "[3]", "value": 586, "unit": "nm"},
      {"measurement": "λmax", "setting": "[3]", "value": 560, "unit": "nm"},
      {"measurement": "ϕ (quantum yield)", "setting": "[4]", "value": 0.10},
      {"measurement": "ϕ", "setting": "[4]; pH 7.3", "value": 0.10}
    ]}
  ]
}
